# From US8881823B2, “Environmentally friendly low temperature breaker systems and related methods” (Halliburton Energy Services, Inc., priority 2011, dated 2014)
# Tests used:
# [1] = Active toxicity test of GLDA on Rainbow trout (OECD 203); type: in vivo, Oncorhynchus mykiss; conditions: rainbow trout (Oncorhynchus mykiss), in vivo, OECD 203, 96-h
# Method: (§1) GLDA was also tested for its eco-toxicological effect on various environmental subjects. In particular, the active toxicity of GLDA was measured on various organisms following OECD 201, 202 and 203 protocols.
# [2] = tested on: Rainbow trout (Oncorhynchus mykiss); assay: as above; type: in vivo; conditions: OECD 203, 96-h
# Method: as §1
# [3] = Active toxicity test of GLDA on Daphnia magna (OECD 202); type: in vivo; conditions: in vivo, OECD 202, 48-h
# Method: as §1
# Daphnia magna = assay: as above; type: in vivo; conditions: OECD 202, 48-h
# Method: as §1
# [4] = design: species or system Alga; conditions: alga, in vivo
# Method: as §1
# Alga = conditions: Alga, in vivo, 72 h
# Method: as §1
# [5] = Chemical oxygen demand (COD) test; type: physicochemical
# Source text: Table 2 compares the biodegradability of GLDA and EDTA and summarizes chemical oxygen demand (COD) tests which indirectly measures the amount of organic compounds in water.
# [6] = Calcite dissolving capacity of breaker systems; type: physicochemical; conditions: 2.5 g BARACARB 5 in 50 mL test fluid, one hour
# Method: The calcite dissolving capacity of each breaker system was determined in the following manner. A known amount of a technical grade calcium carbonate (commercially available from Halliburton under the tradename “BARACARB 5”) was dried in an oven for 2 hours. […] The solution was subsequently filtered with a 1 micron fiber glass filter paper.
# [7] = Dissolution and miscibility tests in sodium bromide brines; type: physicochemical; conditions: for % Complexed or Dissolved / Final Weight of BARACARB 5: 2.5 g BARACARB 5, 150° F., 16 hours
# Method: Dissolution and miscibility tests were also performed on 20% GLDA in sodium bromide brines. 20% GLDA was mixed in various concentration of NaBr in order to evaluate the effect of brine concentration on the dissolving capacity of GLDA. Without being limited by theory, it is believed that reducing the amount of available free water in the brine reduced the dissociation rate of the acid functionalities on the breaker, which in turn reduced the amount of complexed calcium ions. These tests were performed in 20% v/v breaker systems in 10.2 lb/gal KCl/NaBr brine or 12.5 lb/gal NaBr brine. In each case, 2.5 g of BARACARB 5 calcium carbonate was added to the breaker systems at 150° F. for 16 hours. For comparison, a mineral acid breaker system was also tested.
# [8] = Initial and over time miscibility and pH in potassium formate brines; type: physicochemical; conditions: for After Static Aging: overnight 150° F.; for pH Final: static 16 hrs @ 150° F.
# Method: Completion breaker solutions were to be tested at 5%, 10%, and 20% by volume concentrations in each of the brines. The initial miscibility and the miscibility after static aging overnight at 150° F. were observed. Also, the pH of the final mixes was measured. The different concentrations of the breaker solutions were prepared with fresh water and filtered through a 1.6 μm glass fiber filter prior to testing.
# The tests were run by adding the appropriate volume of the test breaker (5%, 10%, or 20% by volume) to the volume of the test brine needed to total 100 ml in a 4 ounce jar, sealing it, and swirling to mix the components. Observation was noted of the compatibility of the components.
# [9] = Multiple step return permeability test; conditions: 20% GLDA solution in 11 lb/gal sodium bromide, 16 hours soak, approximately 110° F.
# Source text: To simulate the performance of a breaker solution in potential downhole applications, a 20% GLDA solution in 11 lb/gal sodium bromide was used in a multiple step return permeability test on a low permeability Berea Sandstone core plug. The following procedure was used.
# A 1.0″ diameter core plug was cut out of a Berea Sandstone block having low permeability (about 20% porosity). The core plug was inserted into a containment sleeve of a manual return permeameter (MRP). The pressure chamber was sealed and the temperature was maintained at approximately 110° F., while the confining pressure was at approximately 2,500 psi. Once the temperature and overburden pressure stabilized, isoparaffin solvent (“SOLTROL® 170” commercially available from Chevron Phillips Chemical Company) filtered to 0.45 micron, was produced through the core at 4 ml/min against approximately 200 psi back-pressure. […] The initial and final permeability values were calculated using Darcy's Law for linear flow: […]
# Treatment simulation in the lab involved three separate steps, each step potentially causing formation damage or a reduction in permeability. […] Once the displacement of the drill-in fluid was complete, the damage caused by the previous three injection steps was evaluated by pumping of SOLTROL® 170 through the core until a constant permeability was obtained using the same procedure used for the initial permeability. […]
# [10] = 20% v/v breaker in 10.2 lb/gal KCl/NaBr
# [11] = 20% v/v breaker in 12.5 lb/gal NaBr
# [12] = 5% by volume, potassium formate brine 11.0 lb/gal
# [13] = 5% by volume, potassium formate brine 12.0 lb/gal
# [14] = 5% by volume, potassium formate brine 13.0 lb/gal
# [15] = 10% by volume, potassium formate brine 11.0 lb/gal
# [16] = 10% by volume, potassium formate brine 12.0 lb/gal
# [17] = 10% by volume, potassium formate brine 13.0 lb/gal
# [18] = 20% by volume, potassium formate brine 11.0 lb/gal
# [19] = 20% by volume, potassium formate brine 12.0 lb/gal
# [20] = 20% by volume, potassium formate brine 13.0 lb/gal
smiles,measurement,setting,value
"O=C(O)CC[C@@H](C(=O)O)N(CC(=O)O)CC(=O)O [GLDA, L-glutamic acid N,N-diacetic acid]",LC50 at 96 h,[1],> 100 µg/mL
same,96-h NOEC,[2],NOEC ≧ 100 mg/l
same,EC50 at 48 h,[3],> 100 µg/mL
same,48-h NOEC,Daphnia magna,NOEC ≧ 100 mg/l
same,EC50 at 72 h,[4],> 100 µg/mL
same,72-h NOEC,Alga,NOEC ≧ 100 mg/l
same,COD,[5],345 to 385 mg/g
same,% Carbonate Complexed or Dissolved,[6],19.6%
same,"Final Weight of BARACARB 5, g",[6],2.01 g
same,% Complexed or Dissolved,[7]; [10],49%
same,Final Weight of BARACARB 5,[7]; [10],1.27 g
same,% Complexed or Dissolved,[7]; [11],29%
same,Final Weight of BARACARB 5,[7]; [11],1.78 g
same,carbonate dissolved (FIG. 2),[7]; higher brine concentration,less than 45%
same,carbonate dissolved (FIG. 2),[7]; lower brine concentration,more than 80%
same,Initial Observation,[8]; [12],"Clear, totally soluble"
same,After Static Aging,[8]; [12],"Clear, totally soluble"
same,pH Final,[8]; [12],12.7
same,Initial Observation,[8]; [13],"Clear, totally soluble"
same,After Static Aging,[8]; [13],"Clear, totally soluble"
same,pH Final,[8]; [13],13.3
same,Initial Observation,[8]; [14],"Clear, totally soluble"
same,After Static Aging,[8]; [14],"Clear, totally soluble"
same,pH Final,[8]; [14],13.8
same,Initial Observation,[8]; [15],"Clear, totally soluble"
same,After Static Aging,[8]; [15],"Clear, totally soluble"
same,pH Final,[8]; [15],13.3
same,Initial Observation,[8]; [16],"Clear, totally soluble"
same,After Static Aging,[8]; [16],"Clear, totally soluble"
same,pH Final,[8]; [16],14.4
same,Initial Observation,[8]; [17],"Clear, totally soluble"
same,After Static Aging,[8]; [17],"Clear, totally soluble"
same,pH Final,[8]; [17],15.0
same,Initial Observation,[8]; [18],"Clear, totally soluble"
same,After Static Aging,[8]; [18],"Clear, totally soluble"
same,pH Final,[8]; [18],13.7
same,Initial Observation,[8]; [19],"Clear, totally soluble"
same,After Static Aging,[8]; [19],"Clear, totally soluble"
same,pH Final,[8]; [19],14.7
same,Initial Observation,[8]; [20],"Clear, totally soluble"
same,After Static Aging,[8]; [20],"Clear, totally soluble"
same,pH Final,[8]; [20],15.4
same,solubility / miscibility in the potassium formate brines,"[8]; tested concentrations, 11.0-13.0 lb/gal brines",soluble in the tested concentrations of the potassium formate brine
same,"return permeability after the breaker cleanup, % of the initial permeability",[9],94%
